Laboratory results published in ChEMBL document CHEMBL1944593, “Heteroaromatic-aminomethyl quinolones: potent and selective iNOS inhibitors” (Bioorg Med Chem Lett, 2012).

Columns and labels:
[1] = biological target: Nitric oxide sythases; iNOS & nNOS (Homo sapiens) (UniProt P29475+P35228); test: Selectivity ratio of IC50 for human nNOS to IC50 for human iNOS
[2] = biological target: T1, Nitric oxide synthase 3 (Homo sapiens, UniProt P29474); test: Inhibition of human eNOS expressed in HEK293 cells assessed as NO production by 2,3-diaminonapthalene-based fluorescence assay; type: cell-based
T1 sequence (P29474 whole entry): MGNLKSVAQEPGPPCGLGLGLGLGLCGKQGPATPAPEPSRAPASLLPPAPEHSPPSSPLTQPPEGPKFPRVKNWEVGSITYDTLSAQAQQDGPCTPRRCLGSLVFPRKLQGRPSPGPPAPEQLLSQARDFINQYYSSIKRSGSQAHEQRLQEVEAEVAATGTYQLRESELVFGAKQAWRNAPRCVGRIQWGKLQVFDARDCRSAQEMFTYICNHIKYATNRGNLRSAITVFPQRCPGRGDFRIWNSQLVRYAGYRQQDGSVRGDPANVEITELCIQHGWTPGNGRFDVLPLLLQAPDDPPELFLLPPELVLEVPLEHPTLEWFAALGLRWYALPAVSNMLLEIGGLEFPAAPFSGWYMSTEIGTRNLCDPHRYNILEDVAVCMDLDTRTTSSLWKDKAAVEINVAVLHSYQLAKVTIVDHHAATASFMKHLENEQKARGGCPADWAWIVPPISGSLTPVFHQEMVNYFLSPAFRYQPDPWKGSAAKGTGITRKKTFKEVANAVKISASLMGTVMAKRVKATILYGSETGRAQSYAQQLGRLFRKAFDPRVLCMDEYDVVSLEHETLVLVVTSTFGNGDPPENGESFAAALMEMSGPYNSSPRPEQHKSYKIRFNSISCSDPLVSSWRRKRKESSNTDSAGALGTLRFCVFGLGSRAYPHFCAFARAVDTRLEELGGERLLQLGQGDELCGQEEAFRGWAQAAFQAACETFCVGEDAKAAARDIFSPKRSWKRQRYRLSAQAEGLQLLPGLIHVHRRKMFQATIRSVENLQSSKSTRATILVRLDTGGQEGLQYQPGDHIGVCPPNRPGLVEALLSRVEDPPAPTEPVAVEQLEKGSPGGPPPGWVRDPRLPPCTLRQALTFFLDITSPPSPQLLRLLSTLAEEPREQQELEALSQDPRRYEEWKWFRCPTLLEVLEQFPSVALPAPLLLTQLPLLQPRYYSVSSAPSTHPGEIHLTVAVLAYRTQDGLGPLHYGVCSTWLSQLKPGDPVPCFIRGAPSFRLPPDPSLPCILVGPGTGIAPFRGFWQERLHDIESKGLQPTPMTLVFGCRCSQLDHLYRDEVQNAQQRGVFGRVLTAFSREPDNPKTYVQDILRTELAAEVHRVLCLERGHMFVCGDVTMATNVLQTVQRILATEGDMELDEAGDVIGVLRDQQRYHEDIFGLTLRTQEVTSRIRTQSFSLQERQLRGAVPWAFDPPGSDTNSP

[3] = species: Homo sapiens; test: Selectivity ratio of IC50 for human eNOS to IC50 for human iNOS
[4] = biological target: Nitric oxide synthase, inducible (Homo sapiens, UniProt P35228); test: Inhibition of human iNOS expressed in HEK293 cells assessed as NO production by 2,3-diaminonapthalene-based fluorescence assay; type: cell-based
[5] = biological target: Nitric oxide synthase 1 (Homo sapiens, UniProt P29475); test: Inhibition of human nNOS expressed in HEK293 cells assessed as NO production by 2,3-diaminonapthalene-based fluorescence assay; type: cell-based
[6] = Volume of distribution at steady state in mouse; type: ADME, organism-based; details: in vivo, read-out: Vdss
[7] = biological target: T2, Nitric oxide synthase, inducible (Mus musculus, UniProt P29477); test: Inhibition of mouse iNOS
T2 sequence (P29477 whole entry): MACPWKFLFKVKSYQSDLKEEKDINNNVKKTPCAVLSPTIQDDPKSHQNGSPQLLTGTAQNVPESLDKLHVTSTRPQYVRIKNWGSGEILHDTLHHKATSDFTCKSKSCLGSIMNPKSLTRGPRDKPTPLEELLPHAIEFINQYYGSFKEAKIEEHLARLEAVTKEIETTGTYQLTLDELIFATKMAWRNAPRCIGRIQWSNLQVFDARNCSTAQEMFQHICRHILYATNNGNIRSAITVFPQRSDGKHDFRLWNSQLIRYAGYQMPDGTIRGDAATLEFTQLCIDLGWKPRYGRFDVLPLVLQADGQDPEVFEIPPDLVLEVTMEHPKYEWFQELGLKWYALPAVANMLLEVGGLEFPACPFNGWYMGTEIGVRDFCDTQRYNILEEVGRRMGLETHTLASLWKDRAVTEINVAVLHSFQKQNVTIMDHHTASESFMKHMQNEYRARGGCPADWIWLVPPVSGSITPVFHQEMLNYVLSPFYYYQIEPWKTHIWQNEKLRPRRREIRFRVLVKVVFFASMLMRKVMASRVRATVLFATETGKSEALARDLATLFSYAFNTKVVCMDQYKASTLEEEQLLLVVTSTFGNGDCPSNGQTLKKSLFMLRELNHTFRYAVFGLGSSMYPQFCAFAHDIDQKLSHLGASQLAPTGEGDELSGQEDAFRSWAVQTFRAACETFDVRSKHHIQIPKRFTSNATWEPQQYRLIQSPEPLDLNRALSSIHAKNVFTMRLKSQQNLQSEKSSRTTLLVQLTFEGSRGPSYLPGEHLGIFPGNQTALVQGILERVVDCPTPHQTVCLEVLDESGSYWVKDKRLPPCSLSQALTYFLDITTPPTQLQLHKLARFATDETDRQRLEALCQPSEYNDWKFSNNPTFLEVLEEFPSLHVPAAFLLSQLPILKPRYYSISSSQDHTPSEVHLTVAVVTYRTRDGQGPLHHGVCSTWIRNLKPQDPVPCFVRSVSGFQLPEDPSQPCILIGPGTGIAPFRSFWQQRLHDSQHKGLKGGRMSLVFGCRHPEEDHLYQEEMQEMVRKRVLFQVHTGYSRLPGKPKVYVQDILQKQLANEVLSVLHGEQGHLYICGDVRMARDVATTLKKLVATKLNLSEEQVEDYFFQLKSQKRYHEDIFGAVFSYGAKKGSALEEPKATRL

[8] = AUC in mouse at 10 mg/kg, po; type: ADME, organism-based; design: dose 10 mg/kg, route oral; details: plasma
[9] = system: Mus musculus; test: Antiinflammatory activity in po dosed mouse assessed as reduction in LPS-induced nitatre level in plasma; type: functional
[10] = biological target: T3, Nitric oxide synthase 3 (Homo sapiens) (UniProt P29474); test: Inhibition of human eNOS expressed in HEK293 cells assessed as NO production at 30 uM by 2,3-diaminonapthalene-based fluorescence assay; type: cell-based
T3 sequence (whole entry): T1 sequence (P29474 whole entry)

[11] = system: Mus musculus; test: Antiinflammatory activity in mouse assessed as reduction in LPS-induced nitatre level in plasma at 30 mg/kg, po; type: functional; design: scale not given: the % may be the effect or the level left
[12] = Plasma clearance in mouse; type: ADME, organism-based
[13] = Cmax in mouse at 10 mg/kg, po; type: ADME, organism-based; design: dose 10 mg/kg, route oral; details: in vivo
[14] = Half life in mouse; type: ADME, organism-based; details: in vivo
[15] = Oral bioavailability in mouse at 10 mg/kg; type: ADME, organism-based; details: in vivo
[16] = Half life in mouse liver microsomes; type: ADME, Microsome

Chain of Nitric oxide synthase 1 (P29475 whole entry): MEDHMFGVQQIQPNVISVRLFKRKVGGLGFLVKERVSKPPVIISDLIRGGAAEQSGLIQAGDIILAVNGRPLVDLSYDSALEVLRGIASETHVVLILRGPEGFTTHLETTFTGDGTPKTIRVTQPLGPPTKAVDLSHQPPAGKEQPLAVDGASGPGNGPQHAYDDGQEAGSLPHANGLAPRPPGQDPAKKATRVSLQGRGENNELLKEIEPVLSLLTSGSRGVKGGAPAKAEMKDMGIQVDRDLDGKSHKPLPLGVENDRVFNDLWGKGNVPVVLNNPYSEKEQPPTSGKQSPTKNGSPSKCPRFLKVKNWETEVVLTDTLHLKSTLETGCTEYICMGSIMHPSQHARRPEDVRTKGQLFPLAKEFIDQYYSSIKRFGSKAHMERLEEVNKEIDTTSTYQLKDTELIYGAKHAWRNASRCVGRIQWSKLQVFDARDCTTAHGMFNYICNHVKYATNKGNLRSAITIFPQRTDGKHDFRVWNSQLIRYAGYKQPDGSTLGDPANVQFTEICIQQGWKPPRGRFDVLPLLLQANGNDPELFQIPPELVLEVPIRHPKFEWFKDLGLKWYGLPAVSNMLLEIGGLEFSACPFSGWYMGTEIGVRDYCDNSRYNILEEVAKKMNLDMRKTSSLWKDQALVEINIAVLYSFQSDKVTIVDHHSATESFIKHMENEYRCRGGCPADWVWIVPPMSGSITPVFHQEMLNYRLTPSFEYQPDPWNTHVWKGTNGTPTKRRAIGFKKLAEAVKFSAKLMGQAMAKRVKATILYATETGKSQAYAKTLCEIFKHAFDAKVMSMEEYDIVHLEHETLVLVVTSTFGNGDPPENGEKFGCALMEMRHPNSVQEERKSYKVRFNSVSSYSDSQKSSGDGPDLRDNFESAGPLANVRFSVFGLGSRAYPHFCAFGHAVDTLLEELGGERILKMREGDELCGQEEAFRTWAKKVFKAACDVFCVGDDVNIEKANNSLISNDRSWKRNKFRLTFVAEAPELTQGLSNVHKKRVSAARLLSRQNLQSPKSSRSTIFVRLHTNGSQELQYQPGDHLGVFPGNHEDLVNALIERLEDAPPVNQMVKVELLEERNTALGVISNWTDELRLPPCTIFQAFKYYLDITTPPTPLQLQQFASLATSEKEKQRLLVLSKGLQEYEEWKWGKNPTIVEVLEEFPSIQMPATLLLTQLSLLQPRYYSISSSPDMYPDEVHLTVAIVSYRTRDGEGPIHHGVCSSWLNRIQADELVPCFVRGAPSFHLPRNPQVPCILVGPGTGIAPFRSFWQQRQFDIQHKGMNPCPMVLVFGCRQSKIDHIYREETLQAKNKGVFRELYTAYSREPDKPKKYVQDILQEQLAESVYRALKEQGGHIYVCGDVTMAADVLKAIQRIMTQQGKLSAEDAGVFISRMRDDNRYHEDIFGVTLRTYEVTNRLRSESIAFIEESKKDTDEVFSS
Chain of Nitric oxide sythases; iNOS & nNOS (Homo sapiens) (P29475 whole entry, looked up): as the sequence (P29475 whole entry) above
Chain of Nitric oxide sythases; iNOS & nNOS (Homo sapiens) (P35228 whole entry, looked up): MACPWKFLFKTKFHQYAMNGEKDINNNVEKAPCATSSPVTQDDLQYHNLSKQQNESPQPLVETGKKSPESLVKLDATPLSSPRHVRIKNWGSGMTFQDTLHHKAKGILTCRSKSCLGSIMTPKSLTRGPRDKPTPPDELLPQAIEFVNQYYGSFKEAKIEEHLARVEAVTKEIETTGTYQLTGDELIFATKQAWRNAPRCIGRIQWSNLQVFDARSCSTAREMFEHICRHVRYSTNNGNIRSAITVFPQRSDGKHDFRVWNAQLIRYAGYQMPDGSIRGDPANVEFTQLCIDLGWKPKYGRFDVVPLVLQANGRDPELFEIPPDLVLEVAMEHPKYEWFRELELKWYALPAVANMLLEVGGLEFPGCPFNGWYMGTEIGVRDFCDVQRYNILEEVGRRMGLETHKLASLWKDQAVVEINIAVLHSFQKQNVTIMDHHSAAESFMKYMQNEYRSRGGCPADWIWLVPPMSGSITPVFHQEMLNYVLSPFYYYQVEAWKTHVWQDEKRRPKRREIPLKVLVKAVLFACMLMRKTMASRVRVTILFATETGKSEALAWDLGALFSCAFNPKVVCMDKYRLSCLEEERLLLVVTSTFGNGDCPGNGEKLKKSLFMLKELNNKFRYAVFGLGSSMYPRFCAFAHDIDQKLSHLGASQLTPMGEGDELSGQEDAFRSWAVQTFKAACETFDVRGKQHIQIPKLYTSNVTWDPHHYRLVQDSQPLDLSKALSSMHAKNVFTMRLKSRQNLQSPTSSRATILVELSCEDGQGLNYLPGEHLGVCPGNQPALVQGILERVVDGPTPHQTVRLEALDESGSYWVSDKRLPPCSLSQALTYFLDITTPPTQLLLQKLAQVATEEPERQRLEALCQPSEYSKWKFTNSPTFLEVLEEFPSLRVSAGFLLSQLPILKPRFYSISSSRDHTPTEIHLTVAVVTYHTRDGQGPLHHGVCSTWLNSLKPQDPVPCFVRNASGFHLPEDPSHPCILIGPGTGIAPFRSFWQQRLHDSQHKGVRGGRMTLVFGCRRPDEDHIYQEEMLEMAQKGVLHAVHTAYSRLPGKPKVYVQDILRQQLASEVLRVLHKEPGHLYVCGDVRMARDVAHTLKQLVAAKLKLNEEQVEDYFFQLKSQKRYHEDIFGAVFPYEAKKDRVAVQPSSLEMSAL
Chain of Nitric oxide synthase, inducible (Homo sapiens, UniProt P35228) (P35228 whole entry): as the sequence (P35228 whole entry, looked up) above

Row | Structure (SMILES) | Ratio IC50 [1] | IC50 [2] [nM] | Ratio IC50 [3] | IC50 [4] [nM] | IC50 [5] [nM] | also measured
1 | O=c1cc(CN(Cc2ccccc2F)c2cnccn2)c2ccc(F)c(F)c2[nH]1 | 5 | 11000 | 900 | 12 | 64 | 
2 | Cc1ccccc1CN(Cc1cc(=O)[nH]c2c(F)c(F)ccc12)c1cnccn1 | 5 | 13000 | 1300 | 10 | 46 | 
3 | O=c1cc(CN(Cc2ccccc2Cl)c2cnccn2)c2ccc(F)c(F)c2[nH]1 | 5 | 12000 | 1000 | 12 | 60 | 
4 | O=c1cc(Cn2c(C3CCC3)nc3nccnc32)c2ccc(F)c(F)c2[nH]1 |  |  |  | 91 |  | Vd [6]: 0.4 L/kg; IC50 [7]: 500 nM; AUC [8]: 25000 ng·h/mL; ED50 [9]: 1 mg/kg
5 | [O-][n+]1cc(CN(c2cccc(Cl)c2)c2ncccn2)c2ccc(F)c(F)c2c1 | 9 |  | > 1000 | 17 |  | 
6 | Fc1ccc2c(CN(c3cccc(Cl)c3)c3ncccn3)cncc2c1F |  |  | > 1000 | 200 |  | 
7 | O=c1cc(CN(Cc2ccccc2)c2cnccn2)c2ccc(F)c(F)c2[nH]1 | 8 | 6400 | 500 | 13 | 100 | 
8 | CN(C)c1cc(N(Cc2cc(=O)[nH]c3c(F)c(F)ccc23)c2cccc(Cl)c2)ncn1 | 20 | > 30000 | > 1000 | 28 | 500 | inhibition [10]: < 50%
9 | O=c1cc(CN(Cc2ccccn2)c2cnccn2)c2ccc(F)c(F)c2[nH]1 | 6 | 11000 | 140 | 78 | 440 | half-life [16]: < 0.333 h
10 | O=c1cc(CN(Cc2cccc(Cl)c2)c2cnccn2)c2ccc(F)c(F)c2[nH]1 | 2 | 8300 | 40 | 220 | 330 | half-life [16]: < 0.333 h
11 | COc1cc(N(Cc2cc(=O)[nH]c3c(F)c(F)ccc23)c2cccc(Cl)c2)ncn1 | 2 | > 30000 | > 500 | 61 | 130 | inhibition [10]: < 50%
12 | O=c1cc(CN(Cc2ccc(Cl)cc2)c2cnccn2)c2ccc(F)c(F)c2[nH]1 | 2 | 7100 | 90 | 77 | 120 | half-life [16]: < 0.333 h
13 | O=c1cc(CN(c2ccccc2)c2cccc(Cl)c2)c2ccc(F)c(F)c2[nH]1 |  | > 30000 | > 20 | 1500 |  | inhibition [10]: < 50%
14 | Cn1ncc2c(N(Cc3cc(=O)[nH]c4c(F)c(F)ccc34)c3cccc(Cl)c3)ncnc21 |  | 8300 | 730 | 11 | 62 | half-life [16]: < 0.5 h

Second part, led by results:

Row | Ratio IC50 [1] | IC50 [2] [nM] | Ratio IC50 [3] | IC50 [4] [nM] | IC50 [5] [nM] | Structure (SMILES) | also measured
15 |  | > 30000 | > 85 | 350 |  | Cc1cccnc1N(Cc1cc(=O)[nH]c2c(F)c(F)ccc12)c1cccc(Cl)c1 | inhibition [10]: < 50%
16 | 2 | 23000 | 170 | 130 | 240 | O=c1cc(CN(c2ccncc2)c2cccc(Cl)c2)c2ccc(F)c(F)c2[nH]1 | 
17 | 2 | 1500 | 300 | 5 | 12 | O=c1cc(CN(c2cccc(Cl)c2)c2cnccn2)c2ccc(F)c(F)c2[nH]1 | Activity [11]: 80%; Vd [6]: 1.7 L/kg; clearance [12]: 34 mL/min/kg; IC50 [7]: 5 nM; AUC [8]: 120 ng·h/mL; Cmax [13]: 45 ng/mL; half-life [14]: 2.1 h; ED50 [9]: 3.6 mg/kg; bioavailability [15]: 3%
18 | 5 | 14000 | 180 | 77 | 370 | O=c1cc(CN(c2cccnc2)c2cccc(Cl)c2)c2ccc(F)c(F)c2[nH]1 | 
19 | 5 | 5500 | 425 | 13 | 69 | O=c1cc(CN(c2cccc(Cl)c2)c2ncccn2)c2ccc(F)c(F)c2[nH]1 | 
20 | 11 | 13000 | 1000 | 14 | 150 | O=c1cc(CN(c2cccc(Cl)c2)c2ccncn2)c2ccc(F)c(F)c2[nH]1 | 
21 | 3 | > 30000 | > 500 | 53 | 160 | Cc1cc(N(Cc2cc(=O)[nH]c3c(F)c(F)ccc23)c2cccc(Cl)c2)ncn1 | inhibition [10]: < 50%
22 | 8 | 21000 | 500 | 43 | 360 | O=c1cc(CN(c2cccc(Cl)c2)c2cccnn2)c2ccc(F)c(F)c2[nH]1 | 
23 | 8 | 79000 | 375 | 210 | 1600 | O=c1cc(CN(c2cncnc2)c2cccc(Cl)c2)c2ccc(F)c(F)c2[nH]1 | 
24 | 7 | 7500 | 230 | 33 | 213 | Cc1nccc(N(Cc2cc(=O)[nH]c3c(F)c(F)ccc23)c2cccc(Cl)c2)n1 | Activity [11]: 55%; half-life [16]: 1.5 h
25 | 5 | > 30000 | > 1000 | 31 | 170 | O=c1cc(CN(c2cccc(Cl)c2)c2ccccn2)c2ccc(F)c(F)c2[nH]1 | inhibition [10]: < 50%
26 |  | > 30000 | > 20 | 1300 |  | CN(C)c1nccc(N(Cc2cc(=O)[nH]c3c(F)c(F)ccc23)c2cccc(Cl)c2)n1 | inhibition [10]: < 50%
